≈ marks a conversion by molar mass, not a printed value.
Columns and labels:
Type in all cases: functional
[1] = tested on: Fusobacterium necrophorum; test: Antimicrobial activity against Fusobacterium necrophorum by Wadsworth agar dilution method
[2] = tested on: Blautia producta; test: Antimicrobial activity against Ruminococcus productus by Wadsworth agar dilution method
[3] = tested on: Bifidobacterium pseudolongum; test: Antimicrobial activity against Bifidobacterium pseudolongum by Wadsworth agar dilution method
[4] = tested on: Lactobacillus acidophilus; test: Antimicrobial activity against Lactobacillus acidophilus by Wadsworth agar dilution method
[5] = tested on: Clostridium symbiosum; test: Antimicrobial activity against Clostridium symbiosum by Wadsworth agar dilution method
[6] = tested on: Eubacterium limosum; test: Antimicrobial activity against Eubacterium limosum by Wadsworth agar dilution method
[7] = tested on: Eubacterium cylindroides; test: Antimicrobial activity against Eubacterium cylindroides by Wadsworth agar dilution method; details: Faecalitalea cylindroides
[8] = tested on: Desulfovibrio desulfuricans; test: Antimicrobial activity against Desulfovibrio desulfuricans by Wadsworth agar dilution method
[9] = tested on: Peptostreptococcus anaerobius; test: Antimicrobial activity against Peptostreptococcus anaerobius by Wadsworth agar dilution method
[10] = tested on: Clostridium aminobutyricum; test: Antimicrobial activity against Clostridium aminobutyricum by Wadsworth agar dilution method
[11] = tested on: Paraclostridium bifermentans; test: Antimicrobial activity against Clostridium bifermentans by Wadsworth agar dilution method
[12] = tested on: Fusobacterium sp.; test: Antimicrobial activity against Fusobacterium sp. by Wadsworth agar dilution method
[13] = tested on: Prevotella melaninogenica; test: Antimicrobial activity against Prevotella melaninogenica by Wadsworth agar dilution method
[14] = tested on: Anaerococcus tetradius; test: Antimicrobial activity against Anaerococcus tetradius by Wadsworth agar dilution method
[15] = tested on: Atopobium minutum; test: Antimicrobial activity against Atopobium minutum by Wadsworth agar dilution method
[16] = tested on: Prevotella bivia; test: Antimicrobial activity against Prevotella bivia by Wadsworth agar dilution method
[17] = tested on: Bacteroides nordii; test: Antimicrobial activity against Bacteroides nordii by Wadsworth agar dilution method
[18] = tested on: Eubacterium saburreum; test: Antimicrobial activity against Eubacterium saburreum by Wadsworth agar dilution method; details: Lachnoanaerobaculum saburreum
[19] = tested on: Prevotella disiens; test: Antimicrobial activity against Prevotella disiens by Wadsworth agar dilution method

## CO[C@H]1/C=C/O[C@@]2(C)Oc3c(C)c(O)c4c(O)c(c5c(nc6cc(C)ccn65)c4c3C2=O)NC(=O)/C(C)=C\C=C\[C@H](C)[C@H](O)[C@@H](C)[C@@H](O)[C@@H](C)[C@H](OC(C)=O)[C@@H]1C [RIFAXIMIN]
[1]
  MIC50: 16 µg/mL (≈ 20.4 µM)
  MIC90: > 1020 µg/mL
[2]
  MIC: 0.25 µg/mL (≈ 0.318 µM)
  MIC50: 0.25 µg/mL (≈ 0.318 µM)
  MIC90: 4 µg/mL (≈ 5.09 µM)
[3]
  MIC50: 0.5 µg/mL (≈ 0.636 µM)
  MIC90: > 1020 µg/mL
[4]
  MIC50: 0.5 µg/mL (≈ 0.636 µM)
  MIC90: > 1020 µg/mL
[5]
  MIC: 0.25 µg/mL (≈ 0.318 µM)
  MIC50: 0.25 µg/mL (≈ 0.318 µM)
  MIC90: > 1020 µg/mL
[6]
  MIC50: 0.5 µg/mL (≈ 0.636 µM)
  MIC90: > 1020 µg/mL
[7]
  MIC50: 0.5 µg/mL (≈ 0.636 µM)
  MIC90: > 1020 µg/mL
[8]
  MIC: 32 µg/mL (≈ 40.7 µM)
  MIC50: 32 µg/mL (≈ 40.7 µM)
  MIC90: 64 µg/mL (≈ 81.4 µM)
[9]
  MIC: 0.25 µg/mL (≈ 0.318 µM)
  MIC50: 0.25 µg/mL (≈ 0.318 µM)
  MIC90: 4 µg/mL (≈ 5.09 µM)
[10]
  MIC: 0.25 µg/mL (≈ 0.318 µM)
  MIC50: 0.25 µg/mL (≈ 0.318 µM)
  MIC90: > 1020 µg/mL
[11]
  MIC: 0.25 µg/mL (≈ 0.318 µM)
  MIC50: 0.25 µg/mL (≈ 0.318 µM)
  MIC90: > 1020 µg/mL
[12]
  MIC50: 16 µg/mL (≈ 20.4 µM)
  MIC90: > 1020 µg/mL
[13]
  MIC: 0.25 µg/mL (≈ 0.318 µM)
  MIC50: 0.25 µg/mL (≈ 0.318 µM)
  MIC90: 0.5 µg/mL (≈ 0.636 µM)
[14]
  MIC: 0.25 µg/mL (≈ 0.318 µM)
  MIC50: 0.25 µg/mL (≈ 0.318 µM)
  MIC90: 4 µg/mL (≈ 5.09 µM)
[15]
  MIC50: 0.5 µg/mL (≈ 0.636 µM)
  MIC90: > 1020 µg/mL
[16]
  MIC: 0.25 µg/mL (≈ 0.318 µM)
  MIC50: 0.25 µg/mL (≈ 0.318 µM)
  MIC90: 0.5 µg/mL (≈ 0.636 µM)
[17]
  MIC: 0.25 µg/mL (≈ 0.318 µM)
  MIC50: 0.25 µg/mL (≈ 0.318 µM)
  MIC90: 0.5 µg/mL (≈ 0.636 µM)
[18]
  MIC50: 0.5 µg/mL (≈ 0.636 µM)
  MIC90: > 1020 µg/mL
[19]
  MIC: 0.25 µg/mL (≈ 0.318 µM)
  MIC50: 0.25 µg/mL (≈ 0.318 µM)
  MIC90: 0.5 µg/mL (≈ 0.636 µM)

## CN[C@H](CC(C)C)C(=O)N[C@H]1C(=O)N[C@@H](CC(N)=O)C(=O)N[C@H]2C(=O)N[C@H]3C(=O)N[C@H](C(=O)N[C@H](C(=O)O)c4cc(O)cc(O)c4-c4cc3ccc4O)[C@H](O)c3ccc(c(Cl)c3)Oc3cc2cc(c3O[C@@H]2O[C@H](CO)[C@@H](O)[C@H](O)[C@H]2O[C@H]2C[C@](C)(N)[C@H](O)[C@H](C)O2)Oc2ccc(cc2Cl)[C@H]1O [VANCOMYCIN]
[1]
  MIC50: 256 µg/mL (≈ 177 µM)
  MIC90: > 1020 µg/mL
[2]
  MIC50: 0.5 µg/mL (≈ 0.345 µM)
  MIC90: 1 µg/mL (≈ 0.69 µM)
[3]
  MIC50: 1 µg/mL (≈ 0.69 µM)
  MIC90: 64 µg/mL (≈ 44.2 µM)
[4]
  MIC50: 1 µg/mL (≈ 0.69 µM)
  MIC90: 64 µg/mL (≈ 44.2 µM)
[5]
  MIC50: 1 µg/mL (≈ 0.69 µM)
  MIC90: 4 µg/mL (≈ 2.76 µM)
[6]
  MIC50: 1 µg/mL (≈ 0.69 µM)
  MIC90: 64 µg/mL (≈ 44.2 µM)
[7]
  MIC50: 1 µg/mL (≈ 0.69 µM)
  MIC90: 64 µg/mL (≈ 44.2 µM)
[8]
  MIC50: > 1020 µg/mL
  MIC90: > 1020 µg/mL
[9]
  MIC50: 0.5 µg/mL (≈ 0.345 µM)
  MIC90: 1 µg/mL (≈ 0.69 µM)
[10]
  MIC50: 1 µg/mL (≈ 0.69 µM)
  MIC90: 4 µg/mL (≈ 2.76 µM)
[11]
  MIC50: 1 µg/mL (≈ 0.69 µM)
  MIC90: 4 µg/mL (≈ 2.76 µM)
[12]
  MIC50: 256 µg/mL (≈ 177 µM)
  MIC90: > 1020 µg/mL
[13]
  MIC50: 128 µg/mL (≈ 88.3 µM)
  MIC90: 256 µg/mL (≈ 177 µM)
[14]
  MIC50: 0.5 µg/mL (≈ 0.345 µM)
  MIC90: 1 µg/mL (≈ 0.69 µM)
[15]
  MIC50: 1 µg/mL (≈ 0.69 µM)
  MIC90: 64 µg/mL (≈ 44.2 µM)
[16]
  MIC50: 128 µg/mL (≈ 88.3 µM)
  MIC90: 256 µg/mL (≈ 177 µM)
[17]
  MIC: 64 µg/mL (≈ 44.2 µM)
  MIC50: 64 µg/mL (≈ 44.2 µM)
  MIC90: 128 µg/mL (≈ 88.3 µM)
[18]
  MIC50: 1 µg/mL (≈ 0.69 µM)
  MIC90: 64 µg/mL (≈ 44.2 µM)
[19]
  MIC50: 128 µg/mL (≈ 88.3 µM)
  MIC90: 256 µg/mL (≈ 177 µM)

Source: ChEMBL document CHEMBL1275577, “Study of the in vitro activities of rifaximin and comparator agents against 536 anaerobic intestinal bacteria from the perspective of potential utility in pathology involving bowel flora” (Antimicrob Agents Chemother, 2009)
